The values that follow come from patent publication US9901558B2, “Enhancer of survival of transplanted organ” (SBI Pharmaceuticals Co., Ltd., priority 2011, dated 2018).

Structures are written as SMILES.

The assay deals with heterotopic heart-transplanted model mice. Put plainly: Heterotopic homologous heart transplantation in mice (B10 donors to CBA recipients), heart graft beating/survival. It counts as in vivo. As to conditions: group (b), n = 5: both donor and recipient mice received ALA (100 mg/kg) alone. An excerpt:
B10 mice (male, 10 weeks old on average, body weight: 20 to 25 g) were used as donors for the hearts to be transplanted. CBA mice (male, 10 weeks old on average, body weight: 20 to 25 g) were used as recipients to receive the hearts taken out of the donors. The procedures of the heterotopic homologous heart transplantation in mice followed the description of Experimental Manual of Organ Transplantation (Shujunsha Co., Ltd.), Paragraph 1, Part 2, 2-1-5 “Heterotopic Heart Transplantation in Mice”. Hereinafter, the procedures will be summarized.
The thorax of each donor mouse was opened under anesthesia and sufficiently perfused using 1 mL of saline supplemented with cold heparin, followed by excision of the heart. The excised heart was preserved in saline supplemented with cold heparin. The abdomen of each recipient mouse was opened under anesthesia, and the heart excised from the donor mouse was transplanted into the abdominal vena cava to prepare heterotopic heart-transplanted model mice.
The heterotopic heart-transplanted model mice were divided into groups (1) to (4) with administration patterns shown in Table 1 below. An experiment was conducted on the oral administration of the agent for promoting graft survival of the present invention. […]

With `NCC(=O)CCC(=O)O` [ALA, 5-aminolevulinic acid], the “long-term beating of heart graft” value is “seen in none of these individuals”.
